Experimental data as given in US5300491A, “Treatment of protozoal infection” (priority 1992, dated 1994).
Bridge positions count the residues as written; N and C are the ends. Square brackets hold non-standard residues; d marks the D form. Peptide text beside a SMILES is read from it. * marks the point of attachment. Ileψ(thiazoline)Cys = CC[C@H](C)[C@H](N)C1=N[C@H](C(=O)*)CS1; dOrn = NCCC[C@@H](N)C(=O)O

Assays:
[1] = system: intestinal amoebic infections; conditions: cited from earlier work
[2] = system: human peripheral lymphocytes; conditions: cited from earlier work
E. histolytica = experiment: Amoebiasis clinical study; format: in vivo, Human
Procedure: Cysts and trophozoites of E. histolytica were detected initially by wet preparation screening of faeces, and later confirmed by the formal-ether technique. Full parasitological cure was based upon the presentation of 1-2 negative stool samples within one week post treatment.
In a dose-effect segment of the study, two groups of symptomatic E. histolytica cyst or trophozoite passers attending an outpatient clinic for abdominal pains were treated for either ten or five days.
In a dose-duration study, three groups of patients were observed: Group 1 - symptomatic cyst and trophozoite passers; Group 2 - dysenteric patients with bloody diarrheas; and, Group 3 - asymptomatic cyst passers.

[3] = system: histidine auxotrophs of Salmonella typhimurium; conditions: absence and presence of a rat liver activating system; cited from earlier work
Cryptosporidium parvum = format: in vivo, Human
From the text: The patient was a child, weighing approximately 30 kg. For years, the patient had suffered from moderate diarrhea. Prior to being treated with zinc bacitracin, the patient's stool repeatedly tested positive for intestinal Cryptosporidia. […] The patient received sulfonamide and cefalexin for the influenza during the hiatus. The zinc bacitracin treatment resumed approximately one month later and continued for two weeks thereafter.
After the treatment period, it was observed that the drug was well-tolerated by the patient.

[4] = cited from earlier work
mouse lymphoma cell = conditions: cited from earlier work
G. lamblia = G. lamblia clinical study; format: in vivo, Human; conditions: for patients responding: 200,000 IU daily as tablets for ten days
From the text: Based upon this dosage, 6 of the ten metronida-zole-resistant patients in Sweden responded to this regime. In addition, all of the 11 non-selected patients in Romania responded to this regime. Eight of these 11 non-selected patients remained clear of infection for the length of the study.

spleen cells of rats = conditions: rat, in vivo; cited from earlier work
[5] = Group 1, 9 patients treated for two days
[6] = Group 1, 12 patients treated for 3 days
[7] = Table 5 dose-effect study, symptomatic cyst & trophozoite passers, 100,000 I.U. daily for 5 days, 5 patients
[8] = Table 5 dose-effect study, symptomatic cyst & trophozoite passers, 100,000 I.U. daily for 10 days, 9 patients
[9] = Table 6 dose-duration study, Group 1 symptomatic cyst and trophozoite passers, 1 day, 2 patients
[10] = Table 6 dose-duration study, Group 1 symptomatic cyst and trophozoite passers, 2 days, 9 patients
[11] = Table 6 dose-duration study, Group 1 symptomatic cyst and trophozoite passers, 3 days, 12 patients
[12] = Table 6 dose-duration study, Group 1 symptomatic cyst and trophozoite passers, 5 days, 5 patients
[13] = Table 7 dose-duration study, Group 2 dysentery cases, 3 days, 5 patients
[14] = Table 8 dose-duration study, Group 3 asymptomatic cyst passers, 3 days, 9 patients
[15] = Table 8 dose-duration study, Group 3 asymptomatic cyst passers, 5 days, 9 patients
[16] = 11 non-selected patients in Romania

CC[C@H](C)[C@H](N)C1=N[C@H](C(=O)N[C@@H](CC(C)C)C(=O)N[C@H](CCC(=O)O)C(=O)N[C@H](C(=O)N[C@H]2CCCCNC(=O)[C@H](CC(N)=O)NC(=O)[C@@H](CC(=O)O)NC(=O)[C@H](Cc3cnc[nH]3)NC(=O)[C@@H](Cc3ccccc3)NC(=O)[C@H]([C@@H](C)CC)NC(=O)[C@@H](CCCN)NC2=O)[C@@H](C)CC)CS1 [Bacitracin, reference compound] ({Ileψ(thiazoline)Cys}-L[dE]IK[dOrn]I[dF]H[dD]N; lactam 4-C)
parasitological cure ([1]; 51 patients, 10-20 days, 40,000 to 160,000 units): 66% | cure rate ([1]; 100,000 I.U. daily over ten days): < 100%

Zinc bacitracin
damage to chromosomal structure [2]: did not induce any damage to the chromosomal structure | cure (E. histolytica; 100,000 I.U. daily for 3-5 days): 100% | cure rate (E. histolytica; [5]): 55% | relapse rate (E. histolytica; [5]): 60% | patients relapsed (at days 6 and 10) (E. histolytica; [6]): 16% | primary cure rate (E. histolytica; [6]): 100% | treatment outcome (E. histolytica; Group 1, two patients treated for 1 day): without success | subjects showing parasites in their stools again after two weeks (E. histolytica; Group 3 asymptomatic cyst passers, five-day regimen, 9 subjects): 44% | Number Relapsing (E. histolytica; [7]): 0 | Number Responding (E. histolytica; [7]): 5 | Number Relapsing (E. histolytica; [8]): 0 | Number Responding (E. histolytica; [8]): 9 | Number Relapsing (E. histolytica; [9]): 1 | Number Responding (E. histolytica; [9]): 1 | Number Relapsing (E. histolytica; [10]): 3 | Number Responding (E. histolytica; [10]): 5 | Number Relapsing (E. histolytica; [11]): 2 | Number Responding (E. histolytica; [11]): 12 | Number Relapsing (E. histolytica; [12]): 1 | Number Responding (E. histolytica; [12]): 5 | Number Relapsing (E. histolytica; [13]): 1 | Number Responding (E. histolytica; [13]): 5 | Number Relapsing (E. histolytica; [14]): 2 | Number Responding (E. histolytica; [14]): 8 | Number Relapsing (E. histolytica; [15]): 4 | Number Responding (E. histolytica; [15]): 9 | side effects (E. histolytica; all patients of the amoebiasis clinical study, 100,000 I.U. daily): No side effects were reported | cure rate (E. histolytica; dose-effect study, 9 patients treated for 10 days): 100% | mutagenic potential [3]: devoid of mutagenic potential | stool parasites over the course of the treatment period (Cryptosporidium parvum; child, 30,000 units thrice daily, 8 days and later two weeks): No stool parasites were detected | tolerability (Cryptosporidium parvum; human, in vivo): well-tolerated | stool test after end of treatment (Cryptosporidium parvum; one week after the final discontinuation of treatment): began to once again test positive for intestinal cryptosporidia | absorption from the gut ([4]; rat, in vivo, po): not absorbed from the gut | levels in the livers ([4]; rat, in vivo, po): No detectable levels | oral toxicity ([4]; rats, sub-chronic and chronic, feed levels up to 1,000 ppm): non-toxic | mutation frequency at the TK gene locus (mouse lymphoma cell): no significant increase in the mutation frequency | patients remaining clear of infection for the length of the study (G. lamblia; [16]): Eight | patients responding (G. lamblia; [16]): 11 | patients responding (G. lamblia; ten metronidazole-resistant patients in Sweden): 6 | nucleoid sedimentation velocity (spleen cells of rats): Only a small reduction in nucleoid sedimentation velocity
